Patent publication US8765152B2, “Pharmaceutical or neutraceutical formulation” (Evonik Roehm GmbH, priority 2010, dated 2014)

How the values were obtained:
[1] = test system: Caco-2-cell monolayer; test: TEER, cationic penetration promotor/anionic active ingredient mixtures (Example 18); type: cell-based
Description: TEER-Testing was performed analogous to example 12.
The following mixtures in HBSS-buffers were tested
Desmopressin acetate=Desmo,
EUDRAGIT® E Carbonate=E (s. description: carbonated amino(meth)acrylate copolymer)
Bowman Birk Inhibitor=BBI
Heparin: Low molecular weight heparin (LMW-Heparine); Fraxiparin™ (Nadroparin calcium); 0.6 ml ready to use syringe for subcutaneous injection (5700 IU anti-Xa/mg); Ch.B.: 3394-1; Glaxo Smith Kline

[2] = test system: Caco-2-cell monolayer; test: TEER, pure penetration promotor, Caco-2 cell monolayer (Example 17); type: cell-based; conditions: positive control 0.1%
Description: The penetration promoter in the sense of the present invention may be defined by reducing the initial TEER-value of the buffer solution without penetration promotor (100%) to 50% or less, preferably 40% or less, preferably 30% or less, preferably 20% or less in the presence of the penetration promotor at a concentration of 1 mg/ml after 60 min measured in a Caco-2-cell monolayer culture as transport barrier.
TEER-Testing was performed analogous to example 12. EUDRAGIT® E acetate=EUDRAGIT® E dissolved in water by addition of acetic acid until clear solution was obtained; EUDRAGIT® E PO base=dispersion of EUDRAGIT® E PO (powder form of EUDRAGIT® E) in water (not dissolved); chitosan acetate=chitosan dissolved in water by addition of acetic acid until clear solution was obtained.

[3] = test system: Pancreatin; test: In-vitro pancreatic enzyme inhibition test, degradation of desmopressin acetate by pancreatin (Example 14); type: biochemical; conditions: for desmopressin acetate remaining in presence of pancreatin: control solutions (positive control 1 mg/ml BBI final)
Description: In-Vitro Pancreatic Enzyme Inhibition Test of the Preparations of Examples 1, 4 and 5
Inhibition experiments were performed using a new study design considering the dissolution of the pellets.
80 mg of each formulation were stirred in 10 ml of HBSS pH 5.8 at the lowest stirring speed available. The stirring was stopped after 30 min and the suspensions allowed to settle down before an aliquot (2 ml) was drawn and mixed with 2 mL of a solution containing 80 μg·ml^−1 of Desmopressin acetate in HBSS buffer pH 6.5. The pH of the solutions was measured but not adjusted.
As a negative control 2 ml of HBSS buffer were mixed with 2 ml of a solution containing 80 μg·ml^−1 of Desmopressin acetate in HBSS buffer pH 6.5. The pH of the solutions was measured but not adjusted.
As a positive control a solution containing 4 mg of BBI per ml in HBSS was used. 2 ml of the solution were mixed with 2 ml of a solution containing 80 μg·ml^−1 of Desmopressin acetate in HBSS buffer pH 6.5. The pH of the solutions was measured but not adjusted.
200 μL of the prepared solutions were mixed with 200 μl of a Pancreatin solution (20 mg·ml^−1) and incubated for 1, 2 and 3 h at 37° C. Each experiment was performed in triplicate (three individually prepared solutions).
(Final concentrations in the positive control: 1 mg/ml BBI, 20 μg/ml desmopressin actuate and 10 mg/ml pancreatin)
For the 100% value 80 mg pellets were stirred in 10 ml HBSS pH 5.8 for 30 min and homogenized using an ultraturrax. The suspension was stirred for further 15 minutes and allowed to settle down.
The supernatant was collected and further diluted with Desmopressin acetate in HBSS buffer pH 6.5 as described above. The pH of the solutions was measured but not adjusted.
For the starting values (t0) the mixture was directly added to 400 μl of acetonitrile and diluted with 1200 μL of HBSS buffer pH 6.5. The solution were analysed by HPLC using a RP-18-column as a stationary phase and a water/acetonitrile-mixture (80:20) as eluent phase at a wavelength of 220 nm.

[4] = orally ingested; cited from earlier work
[5] = listed as buffer (baseline), mean of n = 3

Molecule	TEER in % of TEER in Medium during the test ([1]; 0 min)	TEER in % of TEER in Medium during the test ([1]; 15 min)	TEER in % of TEER in Medium during the test ([1]; 30 min)	TEER in % of TEER in Medium during the test ([1]; 60 min)	TEER in % of TEER in Medium during the test ([1]; 90 min)	TEER in % of TEER in Medium during the test ([1]; 120 min)	TEER in % of TEER in Medium during the test ([1]; 240 min)	TEER in % of TEER in Medium during the test [1, 5]	desmopressin acetate remaining in presence of pancreatin ([3]; 0 min)	desmopressin acetate remaining in presence of pancreatin ([3]; 60 min)	desmopressin acetate remaining in presence of pancreatin ([3]; 120 min)	desmopressin acetate remaining in presence of pancreatin ([3]; 180 min)	other results
NC(=O)CC[C@@H]1NC(=O)[C@H](Cc2ccccc2)NC(=O)[C@H](Cc2ccc(O)cc2)NC(=O)CCSSC[C@@H](C(=O)N2CCC[C@H]2C(=O)N[C@H](CCCN=C(N)N)C(=O)NCC(N)=O)NC(=O)[C@H](CC(N)=O)NC1=O [Example 18c, Desmopressin acetate]	119%	111%	115%	111%	118%	119%	109%	123%					
CCCCCCCCCCCCOS(=O)(=O)[O-].[Na+] [Example 18h, Sodiumdodecylsufate]	22%	16%	16%	12%	16%	12%	13%	123%					Mean-TEER ([2]; 5 min): 12%; Mean-TEER ([2]; 60 min): 4%; Mean-TEER ([2]; 120 min): 10%; Mean-TEER ([2]; 180 min): 12%; Mean-TEER ([2]; 240 min): 15%; Mean-TEER ([2]; HBSS (0 min)): 100%
Nadroparin calcium [Example 18d]	110%	102%	106%	105%	112%	111%	104%	118%					
NC(=O)CC[C@@H]1NC(=O)[C@H](Cc2ccccc2)NC(=O)[C@H](Cc2ccc(O)cc2)NC(=O)CCSSC[C@@H](C(=O)N2CCC[C@H]2C(=O)N[C@H](CCCN=C(N)N)C(=O)NCC(N)=O)NC(=O)[C@H](CC(N)=O)NC1=O [Desmopressin acetate]									100.00%	61.79%	50.51%	33.54%	recovery of desmopressin ([3]; in the absence of the BBI, time not stated): more than 60%
BBI: Bowman-Birk inhibitor from soy bean source (Sigma Aldrich); trypsin and chymotrypsin inhibitor (protein, UniProt P01055 40-110, looked up) Bowman-Birk type proteinase …: DDESSKPCCDQCACTKSNPPQCRCSDMRLNSCHSACKSCICALSYPAQCFCVDITDFCYEPCKPSEDDKEN									100.00%	98.82%	94.48%	85.25%	inhibition of degradation of desmopressin acetate by pancreatin (in words) ([3]; n=3): remarkably reduce the degradation; ingested bowman birk inhibitor absorbed in to the bloodstream [4]: Approximately 50%
